Test: xn = mol fraction of the nth substance listed
Details: Liquid; for viscosity: 101 kPa; for mass density: 101.3 kPa

O=CN1CCOCC1 [N-formylmorpholine] + O
Details	mass density [kg/m3]	viscosity [mPa·s]
298.15 K, x1 = 0.0499	1038.7	1.45
298.15 K, x1 = 0.1007	1067.03	2.22
298.15 K, x1 = 0.1976	1099.55	3.82
298.15 K, x1 = 0.3006	1117.88	5.05
298.15 K, x1 = 0.3917	1127.34	5.95
298.15 K, x1 = 0.5001	1134.34	6.53
298.15 K, x1 = 0.5834	1137.94	6.81
298.15 K, x1 = 0.6969	1141.28	7.25
298.15 K, x1 = 0.7942	1143.43	7.27
298.15 K, x1 = 0.9047	1145.19	7.53
298.15 K, x1 = 0.9493	1145.97	7.7
298.15 K, x1 = 1	1146.62	7.87
303.15 K, x1 = 0.0499	1036.24	1.29
303.15 K, x1 = 0.1007	1063.95	1.85
303.15 K, x1 = 0.1976	1095.78	3.33
303.15 K, x1 = 0.3006	1113.82	4.31
303.15 K, x1 = 0.3917	1123.11	5.04
303.15 K, x1 = 0.5001	1130.03	5.54
303.15 K, x1 = 0.5834	1133.6	5.79
303.15 K, x1 = 0.6969	1136.91	6.02
303.15 K, x1 = 0.7942	1139.05	6.21
303.15 K, x1 = 0.9047	1140.81	6.46
303.15 K, x1 = 0.9493	1141.6	6.62
303.15 K, x1 = 1	1142.26	6.75
313.15 K, x1 = 0.0499	1030.93	1.038
313.15 K, x1 = 0.1007	1057.44	1.52
313.15 K, x1 = 0.1976	1088.06	2.44
313.15 K, x1 = 0.3006	1105.52	3.23
313.15 K, x1 = 0.3917	1114.62	3.77
313.15 K, x1 = 0.5001	1121.35	4.19
313.15 K, x1 = 0.5834	1124.87	4.33
313.15 K, x1 = 0.6969	1128.16	4.55
313.15 K, x1 = 0.7942	1130.3	4.7
313.15 K, x1 = 0.9047	1132.07	4.9
313.15 K, x1 = 0.9493	1132.87	5.03
313.15 K, x1 = 1	1133.53	5.13
323.15 K, x1 = 0.0499	1025.15	0.854
323.15 K, x1 = 0.1007	1050.64	1.23
323.15 K, x1 = 0.1976	1080.16	1.95
323.15 K, x1 = 0.3006	1097.1	2.5
323.15 K, x1 = 0.3917	1105.98	2.88
323.15 K, x1 = 0.5001	1114.62	3.21
323.15 K, x1 = 0.5834	1116.08	3.35
323.15 K, x1 = 0.6969	1119.37	3.53
323.15 K, x1 = 0.7942	1121.52	3.67
323.15 K, x1 = 0.9047	1123.33	3.86
323.15 K, x1 = 0.9493	1124.14	4.01
323.15 K, x1 = 1	1124.82	4.03
333.15 K, x1 = 0.0499	1018.01	0.715
333.15 K, x1 = 0.1007	1043.55	1.018
333.15 K, x1 = 0.1976	1072.05	1.57
333.15 K, x1 = 0.3006	1088.55	2.1
333.15 K, x1 = 0.3917	1097.24	2.41
333.15 K, x1 = 0.5001	1103.8	2.65
333.15 K, x1 = 0.5834	1107.26	2.73
333.15 K, x1 = 0.6969	1110.55	2.84
333.15 K, x1 = 0.7942	1112.72	2.96
333.15 K, x1 = 0.9047	1114.57	3.2
333.15 K, x1 = 0.9493	1115.4	3.21
333.15 K, x1 = 1	1116.11	3.25
343.15 K, x1 = 0.0499	1011.38	0.67
343.15 K, x1 = 0.1007	1036.08	0.857
343.15 K, x1 = 0.1976	1063.72	1.27
343.15 K, x1 = 0.3006	1079.83	1.8
343.15 K, x1 = 0.3917	1088.36	2.05
343.15 K, x1 = 0.5001	1094.88	2.26
343.15 K, x1 = 0.5834	1098.33	2.33
343.15 K, x1 = 0.6969	1101.67	2.37
343.15 K, x1 = 0.7942	1103.88	2.52
343.15 K, x1 = 0.9047	1105.79	2.67
343.15 K, x1 = 0.9493	1106.66	2.67
343.15 K, x1 = 1	1107.39	2.68
